Read-outs that look alike come from different tables or passages of the source.
Biological target: DCN1 (DCUND1) protein PONY domain (Homo sapiens (Human), UniProt Q96GG9)
Experiment: TR-FRET assay (binding to DCN-1, displacement of FAM-labeled probe)
Procedure, shortened: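 Compounds read at 1, 5 and 24 h, 0.1% final DMSO, by TR-FRET between terbium-streptavidin on biotinylated DCN1 PONY domain (E. coli) and a FAM-tagged non-covalent inhibitor probe. Two setups used, 5 nM protein with 20 nM labelled probe, or 0.31 nM protein with 100 nM labelled plus 800 nM unlabelled probe; buffer had TritonX and 200 mM NaCl. % activity relative to high (with probe) and low (without probe) controls.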

[1] = 24 hr after treatment with compound, read-out: TR FRET IC50 24 hr
[2] = TR FRET IC50 1 hr (nM), 1 hr after treatment with compound
[3] = read-out: TR FRET IC50 1 hr, 1 hr after treatment with compound

DCN1 (DCUND1) protein PONY domain, sequence (Q96GG9 60-248): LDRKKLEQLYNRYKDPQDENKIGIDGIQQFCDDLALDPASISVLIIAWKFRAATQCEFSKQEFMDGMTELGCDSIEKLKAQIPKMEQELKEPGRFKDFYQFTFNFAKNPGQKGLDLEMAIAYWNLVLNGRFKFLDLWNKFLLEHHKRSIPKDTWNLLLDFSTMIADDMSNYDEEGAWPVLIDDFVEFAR

| SMILES | IC50 [1] [nM] | IC50 [2] [nM] | IC50 [3] [nM] |
| --- | --- | --- | --- |
| CCN1C(=O)[C@@H](NC(=O)c2nccc(C(F)(F)F)n2)[C@H](c2cccc(NC(=O)/C=C/C(=O)N(C)C)c2)c2c(C)nn(-c3ccccc3)c21 [Compound I-245] | 1000 to 3000 | 1000 to 3000 |  |
| C=C(C(=O)NCc1cccc([C@@H]2c3cnn(-c4ccccc4)c3N(CC)C(=O)[C@H]2NC(=O)c2nccc(C(F)(F)F)n2)c1)[C@H](C)N(C)C1COC1 (single isomer, unassigned) [Compound I-382] |  | 200 to 1000 |  |
| C=C(CO)C(=O)Nc1cccc([C@@H]2c3c(C)nn(-c4ccccc4)c3N(CC)C(=O)[C@H]2NC(=O)c2cccc(C(F)(F)F)c2)c1 (racemic) [Compound I-71] | 200 to 1000 | 1000 to 3000 |  |
| C=C(CN1CCC1)C(=O)NCc1cccc([C@H]2c3cnn(-c4ccccc4)c3N(CC)C(=O)[C@@H]2NC(=O)c2cccc(C(F)(F)F)c2)c1 [Compound I-59] | ≤ 200 | 1000 to 3000 |  |
| C=C(CN1CCOCC1)C(=O)NCc1cccc([C@@H]2c3cnn(-c4ccccc4)c3N(CC)C(=O)[C@H]2NC(=O)c2ccn(CC)n2)c1 [Compound I-351] | ≤ 200 | 200 to 1000 |  |
| CCN1C(=O)[C@@H](NC(=O)c2nccc(C(F)(F)F)n2)[C@H](c2ccccc2/C=C/C#N)c2cnn(-c3ccccc3)c21 (racemic) [Compound I-259, rac-N-((4R,5S)-4-(2-((E)-2-cyanovinyl)phenyl)-7-ethyl-6-oxo-1-phenyl-4,5,6,7-tetrahydro-1H-pyrazolo[3,4-b]pyridin-5-yl)-4-(trifluoromethyl)pyrimidine-2-carboxamide] | 1000 to 3000 | 1000 to 3000 |  |
| C=CC(=O)N(C)c1cccc([C@H]2c3cnn(-c4ccccc4)c3N(CC)C(=O)[C@@H]2NC(=O)c2cccc(C(F)(F)F)c2)c1 (racemic) [Compound I-74] | 1000 to 3000 | 1000 to 3000 |  |
| C=C(CN1CCOCC1)C(=O)Nc1cccc([C@@H]2c3c(C)nn(-c4ccccc4)c3N(CCO)C(=O)[C@@H]2NC(=O)c2cccc(C(F)(F)F)c2)c1 (racemic) [Compound I-55, rac-N-((4R,5R)-7-(2-hydroxyethyl)-3-methyl-4-(3-(2-(morpholinomethyl)acrylamido)phenyl)-6-oxo-1-phenyl-4,5,6,7-tetrahydro-1H-pyrazolo[3,4-b]pyridin-5-yl)-3-(trifluoromethyl)benzamide] | 1000 to 3000 | 1000 to 3000 |  |
| C=C(CN1CC2CC(C1)O2)C(=O)N(C)Cc1cccc([C@@H]2c3cnn(-c4ccccc4)c3N(CC)C(=O)[C@H]2NC(=O)c2ccn(C(F)(F)F)n2)c1 [Compound I-253] | ≤ 200 | 1000 to 3000 |  |
| CCN1C(=O)[C@@H](NC(=O)c2cccc(C(F)(F)F)c2)[C@H](c2ccccc2CN(C)C#N)c2c(C)nn(-c3ccccc3)c21 (racemic) [Compound I-30] | 1000 to 3000 | 1000 to 3000 |  |
| C=C(CN1CCOCC1)C(=O)NCc1cccc([C@@H]2c3cnn(-c4ccccc4)c3N(CC)C(=O)[C@H]2NC(=O)c2ccnn2C)c1 [Compound I-266] | 1000 to 3000 | 1000 to 3000 |  |
| C=C(CN(C)C1COC1)C(=O)N(C)Cc1cccc([C@@H]2c3cnn(-c4ccccc4)c3N(CC)C(=O)[C@H]2NC(=O)c2csc(C(F)(F)F)n2)c1 [Compound I-318] | ≤ 200 | 200 to 1000 |  |
| C=C(CN1CCN(C2COC2)CC1)C(=O)N[C@@H](C)c1cccc([C@@H]2c3cnn(-c4ccccc4)c3N(CC)C(=O)[C@H]2NC(=O)c2nccc(C(F)(F)F)n2)c1 (mixture of isomers) [Compound I-380] | 1000 to 3000 | 1000 to 3000 |  |
| C=C(CN1CC2(CCO2)C1)C(=O)NCc1cccc([C@@H]2c3cnn(-c4ccccc4)c3N(CC)C(=O)[C@H]2NC(=O)c2cccc(C(F)(F)F)c2)c1 [Compound I-63] | ≤ 200 |  | ≤ 200 |
| C=C(CN1CCN(C2COC2)CC1)C(=O)NCc1cccc([C@@H]2c3c(C)nn(-c4ccccc4)c3N(CC)C(=O)[C@H]2NC(=O)c2cccc(C(F)(F)F)c2)c1 (stereo in doubt) [Compound I-252] | ≤ 200 | 1000 to 3000 |  |
| C=C(CN1CCOCC1)C(=O)NCc1cccc([C@@H]2c3cnn(-c4ccccc4)c3N(CC)C(=O)[C@H]2NC(=O)c2ccn(CCF)n2)c1 [Compound I-357] | ≤ 200 | 200 to 1000 |  |
| C/C=C(\CN1CCOCC1)C(=O)NCc1cccc([C@@H]2c3cnn(-c4ccccc4)c3N(CC)C(=O)[C@H]2NC(=O)c2nccc(C(F)(F)F)n2)c1 [Compound I-363] | ≤ 200 | 200 to 1000 |  |
| C=C(CN1CCC1)C(=O)NCc1cccc([C@@H]2c3c(C)nn(-c4ccccc4)c3N(CC)C(=O)[C@H]2NC(=O)c2cccc(C(F)(F)F)c2)c1 [Compound I-303] | ≤ 200 |  | ≤ 200 |
| C=C(CN1CCC1)C(=O)NCc1cccc([C@@H]2c3cnn(-c4ccccc4)c3N(CC)C(=O)[C@H]2NC(=O)c2nccc(C(F)(F)F)n2)c1 [Compound I-162] | ≤ 200 |  | ≤ 200 |

| SMILES | IC50 [1] [nM] | IC50 [2] [nM] | IC50 [3] [nM] |
| --- | --- | --- | --- |
| C=C(C)S(=O)(=O)Nc1cccc([C@H]2c3c(C)nn(-c4ccccc4)c3N(CC)C(=O)[C@@H]2NC(=O)c2cccc(C(F)(F)F)c2)c1 (racemic) [Compound I-88] | 1000 to 3000 | 1000 to 3000 |  |
| CCN1C(=O)[C@H](NC(=O)c2cccc(C(F)(F)F)c2)[C@@H](c2cccc(N(C)C(=O)/C=C/C(F)(F)F)c2)c2cnn(-c3ccccc3)c21 (racemic) [Compound I-99] | 1000 to 3000 | 1000 to 3000 |  |
| CCN1C(=O)[C@H](NC(=O)c2cccc(C(F)(F)F)c2)[C@@H](c2cccc(CNC(=O)/C(C)=C/C(=O)OC)c2)c2cnn(-c3ccccc3)c21 [Compound I-125] | 1000 to 3000 | 1000 to 3000 |  |
| C=C(CN1C2COCC1C2)C(=O)NCc1cccc([C@@H]2c3cnn(-c4ccccc4)c3N(CC)C(=O)[C@H]2NC(=O)c2cccc(C(F)(F)F)c2)c1 [Compound I-8] | ≤ 200 |  | ≤ 200 |
| C/C=C(/CN1CCN(C2COC2)CC1)C(=O)N(C)c1cccc([C@@H]2c3cnn(-c4ccccc4)c3N(CC)C(=O)[C@H]2NC(=O)c2csc(C(F)(F)F)n2)c1 [Compound I-369] | 1000 to 3000 | 1000 to 3000 |  |
| C=C(C(=O)NCc1cccc([C@@H]2c3cnn(-c4ccccc4)c3N(CC)C(=O)[C@H]2NC(=O)c2ccn(C(F)(F)F)n2)c1)C(C)N1CC2CC(C1)O2 (stereo partly drawn) [Compound I-287] | ≤ 200 |  | ≤ 200 |
| C=C(CC(=O)OC)C(=O)NCc1cccc([C@H]2c3cnn(-c4ccccc4)c3N(CC)C(=O)[C@@H]2NC(=O)c2cccc(C(F)(F)F)c2)c1 [Compound I-121] | 1000 to 3000 | 1000 to 3000 |  |
| C=C(Cn1cc(F)cn1)C(=O)NCc1cccc([C@@H]2c3cnn(-c4ccccc4)c3N(CC)C(=O)[C@H]2NC(=O)c2nccc(C(F)(F)F)n2)c1 [Compound I-331] | 200 to 1000 | 1000 to 3000 |  |
| C/C=C(\CN(C)C1COC1)C(=O)NCc1cccc([C@@H]2c3cnn(-c4ccccc4)c3N(CC)C(=O)[C@H]2NC(=O)c2ccn(C(F)(F)F)n2)c1 [Compound I-248] | ≤ 200 | 200 to 1000 |  |
| CCN1C(=O)[C@@H](NC(=O)c2cccc(C(F)(F)F)c2)[C@H](c2cccc(NC(=O)C3=CCCN(C)C3)c2)c2cnn(-c3ccccc3)c21 (racemic) [Compound I-58] | ≤ 200 | 1000 to 3000 |  |
| CCN1C(=O)[C@H](NC(=O)c2cccc(C(F)(F)F)c2)[C@@H](c2cccc(NC(=O)C#CCN(C)C)c2)c2cnn(-c3ccccc3)c21 (racemic) [Compound I-132, rac-N-((4R,5S)-4-(3-(4-(dimethylamino)but-2-ynamido)phenyl)-7-ethyl-6-oxo-1-phenyl-4,5,6,7-tetrahydro-1H-pyrazolo[3,4-b]pyridin-5-yl)-3-(trifluoromethyl)benzamide] | 200 to 1000 | 200 to 1000 |  |
| C=C(CN1CC2(CCC2O)C1)C(=O)NCc1cccc([C@@H]2c3cnn(-c4ccccc4)c3N(CC)C(=O)[C@H]2NC(=O)c2cccc(C(F)(F)F)c2)c1 (stereo partly drawn) [Compound I-375] | ≤ 200 |  | ≤ 200 |
| CCN1C(=O)[C@H](NC(=O)c2cccc(C(F)(F)F)c2)[C@@H](c2ccccc2N2CC=CC2=O)c2cnn(-c3ccccc3)c21 (racemic) [Compound I-21] | > 3000 | > 3000 |  |
| CCN1C(=O)[C@@H](NC(=O)c2cccc(C(F)(F)F)c2)[C@H](c2cccc(CNC#N)c2)c2cnn(-c3ccccc3)c21 (racemic) [Compound I-29] | 1000 to 3000 | 1000 to 3000 |  |
| C=C(CN1CCN(C2COC2)CC1)C(=O)NCc1cccc([C@@H]2c3cnn(-c4ccccc4)c3N(CC)C(=O)[C@H]2NC(=O)c2nccc(C(F)(F)F)n2)n1 [Compound I-333] | ≤ 200 | 200 to 1000 |  |
| CCN1C(=O)[C@H](NC(=O)c2cccc(C(F)(F)F)c2)[C@@H](c2cccc(CNC(=O)/C=C(\C)C(=O)OC)c2)c2cnn(-c3ccccc3)c21 [Compound I-116] | 1000 to 3000 | 1000 to 3000 |  |
| C=C(CN1CCOCC1)C(=O)NCc1cccc([C@H]2c3c(C)nn(-c4ccccc4)c3N(CC)C(=O)[C@@H]2NC(=O)c2cccc(C(F)(F)F)c2)c1 [Compound I-285] | ≤ 200 | 1000 to 3000 |  |
| CCN1C(=O)[C@@H](NC(=O)c2cccc(C(F)(F)F)c2)[C@H](c2ccccc2NC(=O)CCl)c2c(C)nn(-c3ccccc3)c21 [Compound I-52, N-((4R,5S)-4-(2-(2-chloroacetamido)phenyl)-7-ethyl-3-methyl-6-oxo-1-phenyl-4,5,6,7-tetrahydro-1H-pyrazolo[3,4-b]pyridin-5-yl)-3-(trifluoromethyl)benzamide] | ≤ 200 | 1000 to 3000 |  |
| C=C(C(=O)NCc1cccc([C@@H]2c3cnn(-c4ccccc4)c3N(CC)C(=O)[C@H]2NC(=O)c2cccc(C(F)(F)F)c2)c1)C(C)N1CCN(C2COC2)CC1 (stereo partly drawn) [Compound I-317] | ≤ 200 |  | ≤ 200 |
